# Reference: patent US20240391912A1, “MORPHIC FORMS OF CFT7455 AND METHODS OF MANUFACTURE THEREOF” (C4 THERAPEUTICS, INC., priority 2022, published 2024)
# Tests used:
# Type in all cases: physicochemical
# [1] = Behavior of Compound 1 Form I under heating and cooling (DSC cycles); details: for Melting onset: reheat to 300° C. at 10° C./min
# Protocol: Polymorphic behavior of Compound 1 Form I (free form) was investigated by two different heating-cooling cycles of DSC. The results were summarized in Table 6. • HCH1: 30° C. to 300° C. at 10° C./min; 300° C. to −20° C. at 20° C./min; reheat to 300° C. at 10° C./min. • HCH2: 30° C. to 300° C. at 10° C./min; 300° C. to −20° C. at 2° C./min; reheat to 300° C. at 10° C./min.
# [2] = Scale-up experiment (200 mg) and characterization of new polymorphs of Compound 1
# Protocol: Scale-up 1: About 200 mg of Compound 1 Form I was dissolved in 10 mL THF/Water (95:5, v:v) at 40° C. […] Compound 1 Form IV was obtained. It was subjected to characterization.
# Scale-up 2: About 200 mg of Compound 1 Form I was dissolved in 10 mL THF/Water (95:5, v:v) at 40° C. […] It was subjected to characterization.
# [3] = Crystallization of Compound 1 at room temperature by slow evaporation (XRPD)
# Protocol: About 20 mg of Compound 1 Form I (free form) was dissolved and filtered by 0.45 μm nylon filter. Obtained solutions were evaporated slowly at ambient condition. Solid residues were examined for their polymorphic form.
# [4] = Precipitation of Compound 1 by addition of anti-solvent to DMSO solution (XRPD, residual solvent); details: for residual DMSO: 1H-NMR after vacuum drying at 80° C. for 2 hours; for Notes (appearance) / XRPD: solvent DMSO
# Protocol: About 20 mg of Compound 1 Form I (free form) was dissolved in DMSO and anti-solvent was added into the obtained solution slowly. Precipitates were collected by filtration. The solid part (wet cake) was investigated by XRPD. Residual solvent of these solids was also analyzed by ^1H-NMR after vacuum dried at 80° C. for 2 hours.
# [5] = Equilibration of Compound 1 Form I with solvents at 50° C. for 1 week (XRPD)
# Protocol: About 50 mg of Compound 1 Form I (free form) was equilibrated in 1 mL of solvent at 50° C. for 1 week with a stirring plate. The obtained suspension was filtered and the solid part (wet cake) was investigated by XRPD.
# [6] = Water activity study of Compound 1 Form I at 25° C. for 1 week
# Protocol: Water activity experiments were conducted at 25° C. in 7 different water activities solvent mixtures to determine critical water activity of Compound 1 Form I. About 20 mg of Compound 1 Form I was added to 1.0 mL of acetone/water or DMSO/water mixtures and stirred at 400 rpm and 25° C. for 1 week.
# [7] = anti-solvent Water, about 2 mg of seeds added
# [8] = solids after equilibration in EtOH
compound,measurement,setting,value
"O=C1CC[C@H](N2C(=O)c3cccc4c(Cc5ccc(CN6CCOCC6)cc5)ccc2c34)C(=O)N1 [Compound 1 Form I, (S)-3-(6-(4-(morpholinomethyl)benzyl)-2-oxobenzo[cd]indol-1(2H)-yl)piperidine-2,6-dione]",Melting onset,"[1]; HCH1: 30° C. to 300° C. at 10° C./min, 300° C. to −20° C. at 20° C./min",Melting onset 231.4° ° C.
same,enthalpy,[1]; HCH1: cooling 300° C. to −20° C. at 20° C./min,C.; enthalpy 115 J/g
same,Melting onset,"[1]; HCH2: 30° C. to 300° C. at 10° C./min, 300° C. to −20° C. at 2° C./min",Melting onset 231.3° ° C.
same,enthalpy,[1]; HCH2: cooling 300° C. to −20° C. at 2° C./min,C.; enthalpy 108 J/g
same,Stoichiometry: DCM,"[2]; 1H-NMR, listed as Form I",0.6% DCM
same,DSC enthalpy,"[2]; DSC, 10° C./min",enthalpy 114 J/g
same,DSC melting onset,"[2]; DSC, 10° C./min",233.9° C.;
same,Thermogravimetry weight loss,"[2]; TGA, 10° C./min, at 225° C.",About 2.0%
same,Notes (form obtained),[3]; slow evaporation from DCM,Form I
same,XRPD (form change),[3]; slow evaporation from DCM at ambient condition,−
same,Notes (form obtained),[3]; slow evaporation from MeOH/DCM(v:v = 1:1),Form II
same,XRPD (form change),[3]; slow evaporation from MeOH/DCM(v:v = 1:1) at ambient condition,+ (Form changed detected.)
same,Notes (form obtained),[3]; slow evaporation from THF,Form III
same,XRPD (form change),[3]; slow evaporation from THF at ambient condition,+ (Form changed detected.)
same,Notes (form obtained),[3]; slow evaporation from THF:Water (v:v = 95:5),Form III
same,XRPD (form change),[3]; slow evaporation from THF:Water (v:v = 95:5) at ambient condition,+ (Form changed detected.)
same,residual DMSO,[4]; DMSO/EtOH precipitate,0.05 equiv. residual
same,residual DMSO,[4]; DMSO/MeOH precipitate,0.14 equiv. residual
same,residual DMSO,[4]; DMSO/Water precipitate,0.90 equiv. residual
same,Notes (appearance),"[4]; anti-solvent Acetone, held at 5° C. for 2 days, no solid obtained",Clear solution^a
same,Notes (appearance),[4]; anti-solvent EtOAc,Clear solution
same,Notes (appearance),[4]; anti-solvent EtOH,Suspension
same,XRPD,[4]; anti-solvent EtOH,−
same,Notes (appearance),[4]; anti-solvent MeOH,Suspension
same,XRPD,"[4]; anti-solvent MeOH, wet cake",−
same,Notes (appearance),[4]; anti-solvent Water,Suspension
same,XRPD,[4]; anti-solvent Water,−
same,Notes (appearance),[4]; [7],Suspension^b
same,XRPD,[4]; [7],−
same,XRPD,[5]; equilibration in ACN,Form I
same,XRPD,[5]; equilibration in Acetone,Form I
same,XRPD,[5]; equilibration in DCM,Form I
same,XRPD,[5]; equilibration in DCM:MeOH (v:v = 1:1),Form I
same,XRPD,[5]; equilibration in DCM:THF(v:v = 8:2),Form I
same,XRPD,[5]; equilibration in EA,Form I
same,XRPD,[5]; equilibration in EtOH,Form I
same,XRPD,[5]; equilibration in MeOH,Form I
same,XRPD,"[5]; equilibration in THF, wet cake",Form I
same,XRPD,[5]; equilibration in THF:Water (v:v = 95:5),Form I
same,Melting onset,[5]; [8],"Melting onset: 239.5° C.,"
same,enthalpy,[5]; [8],enthalpy: 109 J/g
same,residual DCM,[5]; [8],0.4% residual DCM
same,XRPD,"[6]; Acetone, a.w. 0, 25° C.",Form I
same,XRPD,"[6]; Acetone/Water (91:9, v:v), a.w. 1, 25° C.",Form I
same,XRPD,"[6]; Acetone/Water (94:6, v:v), a.w. 0.5, 25° C.",Form I
same,XRPD,"[6]; Acetone/Water (97:3, v:v), a.w. 0.3, 25° C.",Form I
same,XRPD,"[6]; Acetone/Water (99:1, v:v), a.w. 0.1, 25° C.",Form I
